≈ marks a conversion by molar mass, not a printed value. Where two headings read alike, the source gives them in different places.
What was measured:
GyrA(S84L) + GyrB(wt) = molecular target: T1, GyrA(S84L) + GyrB(wt) (Staphylococcus aureus, UniProt P20831, S84L); experiment: DNA cleavage assay with mutant GyrA(S84L) and GyrB(wt); type: biochemical; conditions: IC50 (μg/mL) GyrA(S84L) + GyrB(wt), Example 9, Table 18
T1 construct: made in house; host or cells: E. coli BL21(DE3)
Description: (§1) E. coliBL21(DE3) (produced by Invitrogen) was transformed with pMAL-c2-gyrA mentioned above, with pMAL-c2-gyrB mentioned above, or with pMAL-c2-SAGAmut84 containing a mutant gyrA encoding the amino acid sequence of GyrA(wt) in which serine residue at the 84th position from the amino terminus is substituted with a leucine residue (see, Hiramatsu K., Igarashi M., Morimoto Y, Baba T., Umekita M., Akamatsu Y., Int. J. Antimicrob. Agents, 2012 June; 39(6), 478-85). To the culture medium of the resulting transformed Escherichia coli, 1 mM […] (produced by Wako Pure Chemical Industries) was added to induce expression of maltose-binding GyrA(wt), maltose-binding GyrB(wt), or maltose-binding mutant GyrA(S84L), and the bacterium was cultured overnight at 25° C. After completion of the culture, the cells were collected, and suspended in a buffer (20 mM Tris-HCl (pH 8.0), 200 mM sodium chloride, 1 mM ethylenediaminetetraacetic acid (EDTA), 1 mM dithiothreitol (DTT)), a protein extracting reagent (10× BugBuster (registered trademark), produced by Novagen) in a volume of 1/10 of the volume of the buffer, and 2.5 μL/10 mL of the buffer of Benzonase (registered trademark) nuclease (produced by Novagen) were added, the mixture was left standing at 25° C. for 30 minutes, and the cells were disrupted and lysed to obtain a disrupted cell suspension containing the maltose-binding GyrA(wt), maltose-binding GyrB(wt), or maltose-binding mutant GyrA(S84L).
(§2) Then, each disrupted cell suspension mentioned above was added to a column filled with an amylose resin covalently bound with maltose (produced by Novagen). A buffer (20 mM Tris-HCl (pH 8.0), 200 mM sodium chloride, 1 mM EDTA) containing 10 mM maltose was added to the column to elute the maltose-binding GyrA(wt), maltose-binding GyrB(wt), and maltose-binding mutant GyrA(S84L).
(§3) To each eluate, 4 units/1 mL of the eluate of protease (Factor Xa, produced by Amersham) was added, and the mixture was left standing at 25° C. for 3 hours and 30 minutes to cleave the maltose-binding proteins, GyrA(wt), GyrB(wt), and mutant GyrA(S84L) from the maltose-binding GyrA(wt), maltose-binding GyrB(wt), and maltose-binding mutant GyrA(S84L).
(§4) Then, GyrA(wt), GyrB(wt), and mutant GyrA(S84L) were concentrated by using an ultrafiltration unit (YM-50 Filter Unit, produced by Millipore).
(§5) The concentrated GyrA(wt), GyrB(wt), and mutant GyrA(S84L) were each suspended in a buffer (35 mM Tris-HCl (pH 7.5), 24 mM potassium chloride, 6 mM magnesium chloride, 1.8 mM spermidine, 0.36 mg/mL bovine serum albumin, 5 mM DTT, 50 volume % glycerol) at a concentration of 1 μg/μL for GyrA(wt), 2 μg/μL for GyrB(wt), or 1 μg/μL for mutant GyrA(S84L).
An assay was performed in the same manner as that of the cleavage of the plasmid DNA with GyrA(wt) and GyrB(wt) mentioned above, provided that 0.15 μL of an enzyme solution of mutant GyrA(S84L) and 0.2 μL of the enzyme solution of GyrB(wt) were added instead of […] of the enzyme solution of GyrA(wt) and 0.2 μL of the enzyme solution of GyrB(wt). In FIGS. 3 and 4, the symbols “S”, “L”, and “N” have the same meanings as those explained for FIGS. 1 and 2.
IC50 value of levofloxacin or apigenin was also calculated from the visualized images shown in FIGS. 3 and 4 in the same manner as that used for the calculation using the results shown in FIGS. 1 and 2.
The DNA cleavage assay was performed with M-246 in the same manner as that used in Example 4.

[1] = tested on: S. aureus FDA209P (ATCC 6538P); experiment: microbe, parasite or virus in culture; type: cell-based, Staphylococcus aureus; conditions: Staphylococcus aureus
Method in brief: (§6)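 Overnight TSB cultures at 37 °C adjusted to A578 0.3, diluted 500-fold in CAMHB and mixed 1:1 with compound in CAMHB; static overnight incubation at 37 °C. MIC reported in mg/L; Mu50 NR-1 also tested in some runs.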

S. aureus Mu50 = experiment: microbe, parasite or virus in culture; type: cell-based, Staphylococcus aureus; conditions: for MIC: Staphylococcus aureus; for MIC ratio: (MIC value for S. aureus FDA209P)/(MIC value for S. aureus Mu50)
Method in brief: as §6

GyrA(wt) + GyrB(wt) = molecular target: T2, GyrA(wt) + GyrB(wt) (Staphylococcus aureus, UniProt P20831); experiment: DNA cleavage assay with GyrA(wt) and GyrB(wt); type: biochemical; conditions: for Ratio of cleaved DNA (%) / Ratio of substrate plasmid DNA (%): Table 18
T2 construct: made in house; host or cells: E. coli BL21(DE3)
Description: The gene sequence encoding the wild-type GyrA of Staphylococcus aureus (henceforth also referred to as “GyrA(wt)”) shown as SEQ ID NO: 1 was cloned into the plasmid pMAL-c2 (produced by New England Biolabs) (the resultant is henceforth also referred to as “pMAL-c2-gyrA”).
The gene sequence encoding the wild-type GyrB of Staphylococcus aureus (henceforth also referred to as “GyrB(wt)”) shown as SEQ ID NO: 2 was cloned into the plasmid pMAL-c2 (produced by New England Biolabs) (the resultant is henceforth also referred to as “pMAL-c2-gyrB”).
as §1, §2, §3, §4, §5
A substrate plasmid DNA, pTWV228 (0.4 μg, produced by Takara Bio), and levofloxacin (LVFX) or apigenin were added to a buffer (35 mM Tris-HCl (pH 7.5), 24 mM potassium chloride, 6 mM magnesium chloride, 1.8 mM spermidine, 0.36 mg/mL bovine serum albumin, 5 mM DTT), and 0.15 μL of the enzyme solution of GyrA(wt) and […] of the enzyme solution of GyrB(wt) were added to the mixture to prepare a reaction mixture in a total volume of 20
Levofloxacin was added at a final concentration of 0, 0.5, 1, 2, 4, 8, 16, or 32 μg/mL.
The aforementioned reaction solution was left standing at 25° C. for 30 minutes to allow the reaction. […]

S. aureus Mu50 NR1-1 = experiment: MIC by broth microdilution, S. aureus Mu50 NR1-1; type: cell-based; conditions: Staphylococcus aureus, MU50NR11; Example 3, Table 13; read-out: MIC (mg/L) Mu50 NR1-1 (S80F, w)
Procedure: MIC values of the flavones and quinolone for the strains were measured in the same manners as those of Example 1, except that S. aureus Mu50 NR-1 was also used as Staphylococcus aureus in addition to S. aureus FDA209P and S. aureus Mu50, cell suspensions of the strains were prepared.
S. aureus Mu50 NR1-1 mentioned in Table 13 is a strain selected stepwise from the clinically isolated S. aureus Mu50 strain with deoxynybomycin, and it has a topoisomerase IV encoded by parC in which a […] (see, Hiramatsu K. et al., J. Antimicrob. Agents, 2012, June; 39 (6), 478-85).
In Table 13, the descriptions in the parentheses after the strains indicate the mutated amino acid residue and its position, as represented by (the mutation of topoisomerase IV resulting from the mutation of parCand the mutation of DNA gyrase resulting from the mutation of gyrA). The character “w” means wild-type, representing without mutation.

[2] = Example 1, Tables 1 to 10, read-out: MIC (mg/L) FDA209P
[3] = Example 2, Table 12, read-out: MIC (mg/L) S. aureus FDA209P
[4] = Example 3, Table 13, read-out: MIC (mg/L) FDA209P (w, w)
[5] = MU50, read-out: MIC (mg/L) Mu50, Example 1, Tables 1 to 10
[6] = MU50, read-out: MIC (mg/L) S. aureus Mu50, Example 2, Table 12
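For MIC ratio in this document: ratio is FDA209P MIC divided by Mu50 MIC.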

`COc1ccc2c(=O)cc(-c3ccc(O)c(OC)c3)oc2c1` [M-246] was tested, and the IC50 (GyrA(S84L) + GyrB(wt)) was 3.35 µM, the MIC ([1]; Example 8, Table 17, read-out: MIC FDA209P) was 128 mg/L (≈ 429 µM) and the MIC (S. aureus Mu50; MU50, read-out: MIC Mu50, Example 8, Table 17) was 4 mg/L (≈ 13.4 µM). For the same compound, the “Ratio of cleaved DNA (%)” value (GyrA(wt) + GyrB(wt); 0.5 μg/mL) was 18%, the “Ratio of substrate plasmid DNA (%)” value (GyrA(wt) + GyrB(wt); 0.5 μg/mL) was 82% and the “Ratio of cleaved DNA (%)” value (GyrA(wt) + GyrB(wt); 1 μg/mL) was 23%. The “Ratio of substrate plasmid DNA (%)” value (GyrA(wt) + GyrB(wt); 1 μg/mL) was 77%, the “Ratio of cleaved DNA (%)” value (GyrA(wt) + GyrB(wt); 2 μg/mL) was 29% and the “Ratio of substrate plasmid DNA (%)” value (GyrA(wt) + GyrB(wt); 2 μg/mL) was 71%. For the same compound, the “Ratio of cleaved DNA (%)” value (GyrA(wt) + GyrB(wt); 4 μg/mL) was 40%, the “Ratio of substrate plasmid DNA (%)” value (GyrA(wt) + GyrB(wt); 4 μg/mL) was 60% and the “Ratio of cleaved DNA (%)” value (GyrA(wt) + GyrB(wt); 8 μg/mL) was 47%. For the same compound, the “Ratio of substrate plasmid DNA (%)” value (GyrA(wt) + GyrB(wt); 8 μg/mL) was 53%, the “Ratio of cleaved DNA (%)” value (GyrA(wt) + GyrB(wt); 16 μg/mL) was 56% and the “Ratio of substrate plasmid DNA (%)” value (GyrA(wt) + GyrB(wt); 16 μg/mL) was 44%. For the same compound, the “Ratio of cleaved DNA (%)” value (GyrA(wt) + GyrB(wt); 32 μg/mL) was 67%, the “Ratio of substrate plasmid DNA (%)” value (GyrA(wt) + GyrB(wt); 32 μg/mL) was 33% and the IC50 (GyrA(wt) + GyrB(wt); IC50 (μg/mL) GyrA(wt) + GyrB(wt), Example 9, Table 18) was 53.6 µM.

Work on `COc1ccc2c(=O)cc(-c3ccc(O)cc3)oc2c1` [No. 69, 2-(4-hydroxyphenyl)-7-methoxychromen-4-one] yielded an MIC [1, 2] greater than 128 mg/L, an MIC [1, 3] of 128 mg/L (≈ 477 µM) and an MIC [1, 4] greater than 128 mg/L. It also gave an MIC ratio (S. aureus Mu50) of 16, an MIC (S. aureus Mu50; [5]) of 16 mg/L (≈ 59.6 µM) and an MIC (S. aureus Mu50; [6]) of 8 mg/L (≈ 29.8 µM). For the same compound, the MIC (S. aureus Mu50 NR1-1) was greater than 128 mg/L.

In the case of `O.O=c1c(O)c(-c2ccc(O)cc2)oc2cc(O)cc(O)c12` [No. 4, 3,4′,5,7-Tetrahydroxyflavone Hydrate], the MIC [1, 2] is reported as 16 mg/L, the MIC [1, 3] is reported as 16 mg/L and the MIC [1, 4] is reported as 16 mg/L. The MIC ratio (S. aureus Mu50) was 2, the MIC (S. aureus Mu50; [5]) was 8 mg/L and the MIC (S. aureus Mu50; [6]) was 8 mg/L. The MIC (S. aureus Mu50 NR1-1) was 16 mg/L.

Reference: US20150322033A1, “ANTIBACTERIAL AGENT” (priority 2012, published 2015)
